From patent US10434181B2, “Oligomer-containing benzamide-based compounds” (Nektar Therapeutics, priority 2012, dated 2019)
Values joined by “and” are separate entries in the source; they are usually repeats but may differ in a detail not shown here. Equal values may be shown once.

Tests used:
[1] = test system: Sprague-Dawley rat hepatocytes; test: MetID determination in rat hepatocytes; assay type: in vitro ADME; details: for major metabolic pathway: rat hepatocytes
Protocol: (§1) Cryopreserved human and Sprague-Dawley rat hepatocytes were thawed in a 37° C. water bath. […] Samples were obtained from separate plates for each time point during the incubation. At each sampling time, the plates were removed from the incubator, quenched by adding 100 μL cold acetonitrile, and placed in an ice bath until centrifugation at 4,000 rpm for 30 minutes at 4° C. Supernatants were stored at or below −70° C. until LC-MS/MS analysis could be conducted. The liquid chromatography system used was Agilent 1100 Autosampler, Binary Pump, DAD and Column Enclosure. Tandem mass spectrometry was conducted using a Thermo DECA XP MAX Ion Trap Mass Spectrometer. The ion source was Electrospray (+) and the LC column used was a Varian, Polaris 5 C18-A (250×2.1 mm, 5 micron) column.
(§2) Metabolic pathways of metoclopramide and conjugates were determined in rat and human hepatocytes. N-dealkylation was the major metabolic pathway for metoclopramide in rats, and metabolism in human hepatocytes was minimal. […] FIG. 2 and FIG. 3 show the metabolic pathway of for mPEG1-N-metoclopramide and mPEG4-N-metoclopramide, respectively. […] In this figure, different metabolites for each conjugate are denoted with the “M” and correspond to the designation provided in the figure for a given conjugate. For example, metabolite M1 for mPEG1-N-metoclopramide in Table 6 corresponds to M1 in FIG. 2, metabolite M2 for mPEG4-N-metoclopramide in Table 6 corresponds to M2 in FIG. 3 and metabolite M3 mPEG8-N-metoclopramide in Table 6 corresponds to M3 in FIG. 4.

human hepatocytes = test: MetID determination in human hepatocytes; assay type: in vitro ADME
Protocol: as §1, §2

dopamine 2L receptors = dopamine 2L receptors (Homo sapiens, UniProt P14416); test: Competition binding assay (dopamine 2L receptors), [3H]methylspiperone; parameters: expressed in transfected cells; details: for Fold-change Relative to Parent: IC50 relative to metoclopramide, D2L binding; for IC50: [3H]methylspiperone competition, HEK 293 membranes expressing D2L, read-out: IC50
Protocol: [^3H] Methylspiperone was diluted in assay buffer to a final concentration of 0.4 nM. To start the assay, 1 uL of compound was added into 96-well v-bottom plates, followed by the addition of 50 uL of diluted membrane preparation, then finally diluted [^3H] Methylspiperone was added. The assay mixture was incubated for 60 minutes at room temperature with shaking. Following incubation, bound [^3H] methylspiperone on 5% PEI soaked GF/B filter plates using a Filtermate Harvester (Perkin Elmer) were then washed four times with ice cold wash buffer (50 mM Tris-HCl, pH 7.5). Filter plates were air dried for two minutes, and then 50 uL of MicroScint-20 was added into each well. Radioactivity counts were quantified using a Top Count plate reader (Perkin Elmer). Data was analyzed using one-site binding competition non-linear regression curve fitting on GraphPad Prism.

dopamine 2S receptor = target: T1, dopamine 2S receptor (Homo sapiens, UniProt P14416); test: β-Arrestin functional assay (dopamine), antagonist mode; assay type: cell-based; details: for Fold-change Relative to Parent: IC50 relative to metoclopramide, D2S β-arrestin; for IC50: β-arrestin interaction, CHO-K1 cells expressing D2S, dopamine at EC80 (400 nM)
T1 construct: host or cells: CHO-K1 (PathHunter eXpress β-arrestin cells)

[2] = Rat PK (intravenous and oral); details: for CLRen: intravenous, 0.5 mg/kg
Protocol: (§3) Rat pharmacokinetic (“PK”) characterization was conducted in male Sprague Dawley Rats (Rattus Norvegicus) weighing between 210-260 gm (Charles River Laboratories (Hollister, Calif.)). Rats were fed a standard diet and water was available ad-libidum at all times. […] Animals were dosed either orally (2.5 mg/Kg) via gavage or intravenously (0.5 mg/kg) via the jugular vein cannula. Blood samples (˜0.15 mL) were collected through carotid artery cannula at respective time points and transferred immediately into K2EDTA-coated tubes (that contain quenching media-acetic acid, PMSF and Dichlorvos) and placed on ice. The samples were centrifuged within thirty minutes after collection at 10,000 RPM for five minutes and the resulting plasma was separated. Plasma were transferred into microfuge tubes and placed on dry ice immediately. The plasma samples were stored at approximately −70° C. until shipped on dry ice for Bioanalysis by LC/MS/MS. Urine samples were collected using metabolic cages into a tube containing citric acid (4 mg for 0-4 and 4-8 hr interval and 16 mg for 8-24 hr interval) on wet ice at the intervals specified in the study design. After the completion of urine collection at each interval, each cage was rinsed with 2 mL of deionized water (1 mL each time). The rinse was collected in the separate labeled container (containing 2 mg of citric acid) as the urine. Following this rinse another 2 ml rinse was carried out with ethanol (1 ml each time). The rinse was also collected in the separate labeled container as the urine. Samples were stored frozen at −70° C. until bioanalysis by LC/MS/MS was performed.
(§4) Pharmacokinetic parameters were determined by non-compartmental analysis using Phoenix®WinNonlin® (Version 6.3; Pharsight Corp., Mountain View, Calif.). Nominal doses and sampling times were used for the analysis. Concentrations reported as BLQ were treated as missing unless they were pre-dose; then they were set to zero. Maximum plasma concentration (Cmax) and time of observed maximum plasma analyte concentration (Tmax) were generated by Phoenix®WinNonlin®, directly from the inputed dataset. […] Area under the plasma concentration-time curve from time 0 to infinity (AUCinf) was calculated as the sum of AUClast and the last observed concentration divided by k. Total plasma clearance (CL) was calculated as Dose/AUCinf. Apparent volume of distribution at steady state (Vss) was calculated as MRTinf*CL, where MRT is the mean residence time.

[3] = target: T2, 5HT4B receptors (serotonin 4B receptors) (Homo sapiens, UniProt Q13639); test: Competition binding assay (serotonin 4B receptors), [3H]GR113808; details: for Fold-change Relative to Parent: IC50 relative to metoclopramide, 5HT4B binding; for IC50: [3H]GR113808 competition, HEK 293 membranes expressing 5HT4B
T2 construct: expressed in transfected cells

[4] = target: serotonin 4 receptor (5HT4) (Homo sapiens, UniProt Q13639); test: cAMP accumulation assay (serotonin 4 receptors); assay type: cell-based
in vivo = details: male, Sprague Dawley, rat, plasma; for AUC(0-inf) / MRT inf / Vd / clearance / half-life: iv, 0.5 mg/kg
Protocol: as §3, §4

[5] = incubation of 10 μM mPEG4-N-metoclopramide, parent and its metabolites M (FIG. 3)
[6] = incubation of 10 μM mPEG8-N-metoclopramide, parent and its metabolites M (FIG. 4)
[7] = incubation of 10 μM mPEG1-N-metoclopramide, parent and its metabolites M (FIG. 2)

T2 sequence (Q13639 whole entry): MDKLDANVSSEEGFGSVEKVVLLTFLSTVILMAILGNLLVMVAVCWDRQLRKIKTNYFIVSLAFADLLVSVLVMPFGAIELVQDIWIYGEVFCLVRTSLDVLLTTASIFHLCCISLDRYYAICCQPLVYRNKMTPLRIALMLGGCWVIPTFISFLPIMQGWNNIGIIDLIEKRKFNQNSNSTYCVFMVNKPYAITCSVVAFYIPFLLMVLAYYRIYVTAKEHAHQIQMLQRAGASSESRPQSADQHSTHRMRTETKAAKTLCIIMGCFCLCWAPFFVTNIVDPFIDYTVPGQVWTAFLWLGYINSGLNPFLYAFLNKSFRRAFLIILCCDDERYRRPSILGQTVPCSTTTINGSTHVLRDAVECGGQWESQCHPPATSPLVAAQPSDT
Chain of serotonin 4 receptor (5HT4) (Q13639 whole entry, species assumed): as the sequence (Q13639 whole entry) above
T1 sequence (P14416 1-414 isoform P14416-2): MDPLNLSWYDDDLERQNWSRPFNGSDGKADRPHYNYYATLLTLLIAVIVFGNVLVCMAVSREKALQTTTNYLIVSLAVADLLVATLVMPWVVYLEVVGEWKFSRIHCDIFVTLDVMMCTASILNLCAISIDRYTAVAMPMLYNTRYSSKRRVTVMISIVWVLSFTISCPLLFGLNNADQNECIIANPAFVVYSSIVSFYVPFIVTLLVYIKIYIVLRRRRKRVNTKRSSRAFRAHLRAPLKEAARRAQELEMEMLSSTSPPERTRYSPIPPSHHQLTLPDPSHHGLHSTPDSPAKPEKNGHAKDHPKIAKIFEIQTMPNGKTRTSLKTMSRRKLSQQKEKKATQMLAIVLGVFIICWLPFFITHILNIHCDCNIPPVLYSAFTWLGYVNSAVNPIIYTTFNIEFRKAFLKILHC
Chain of dopamine 2L receptors (P14416 whole entry): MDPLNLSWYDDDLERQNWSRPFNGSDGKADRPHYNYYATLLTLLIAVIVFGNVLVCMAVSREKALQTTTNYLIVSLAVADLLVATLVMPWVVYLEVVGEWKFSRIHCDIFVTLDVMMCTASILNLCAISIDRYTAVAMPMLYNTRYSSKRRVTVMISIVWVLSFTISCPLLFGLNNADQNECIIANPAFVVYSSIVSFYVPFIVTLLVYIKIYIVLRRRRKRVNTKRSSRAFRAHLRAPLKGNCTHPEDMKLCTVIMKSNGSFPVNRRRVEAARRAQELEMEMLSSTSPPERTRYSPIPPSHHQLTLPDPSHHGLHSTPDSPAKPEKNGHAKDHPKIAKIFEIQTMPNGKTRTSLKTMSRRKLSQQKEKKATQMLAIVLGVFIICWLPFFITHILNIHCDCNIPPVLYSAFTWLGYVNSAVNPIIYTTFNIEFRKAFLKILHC

## CCN(CCO)CCNC(=O)c1cc(Cl)c(N)cc1OC [M6]
[1]; [5]
  % of Total Metabolism, Rat Hep 1 hr: trace
  % of Total Metabolism, Rat Hep 4 hr: trace
[1]; [6]
  % of Total Metabolism, Rat Hep 1 hr: 1%
  % of Total Metabolism, Rat Hep 4 hr: 2.2%

## CCN(CCNC(=O)c1cc(Cl)c(N)cc1OC)CCOCCO [M7]
Human hepatocytes; [6]
  % of Total Metabolism, Human Hep 1 hr: trace
  % of Total Metabolism, Human Hep 4 hr: trace
[1]; [5]
  % of Total Metabolism, Rat Hep 1 hr: 1.7%
  % of Total Metabolism, Rat Hep 4 hr: 1.2%
[1]; [6]
  % of Total Metabolism, Rat Hep 1 hr: 1.2%
  % of Total Metabolism, Rat Hep 4 hr: 2.2%

## CCN(CCNC(=O)c1cc(Cl)c(N)cc1OC)CCOCCOCCO [M8]
Human hepatocytes; [6]
  % of Total Metabolism, Human Hep 1 hr: trace
  % of Total Metabolism, Human Hep 4 hr: trace
[1]; [5]
  % of Total Metabolism, Rat Hep 1 hr: trace
  % of Total Metabolism, Rat Hep 4 hr: 1.5%
[1]; [6]
  % of Total Metabolism, Rat Hep 1 hr: 1.3%
  % of Total Metabolism, Rat Hep 4 hr: 2.5%

## CCN(CCNC(=O)c1cc(Cl)c(N)cc1OC)CCOCCOCCOCCO [M9]
Human hepatocytes; [5]
  % of Total Metabolism, Human Hep 4 hr: 1.9%
Human hepatocytes; [6]
  % of Total Metabolism, Human Hep 1 hr: trace
  % of Total Metabolism, Human Hep 4 hr: trace
[1]; [5]
  % of Total Metabolism, Rat Hep 1 hr: 8.8%
  % of Total Metabolism, Rat Hep 4 hr: 24.8%
[1]; [6]
  % of Total Metabolism, Rat Hep 1 hr: Trace
  % of Total Metabolism, Rat Hep 4 hr: 1.6%

## CCN(CCO)CCNC(=O)c1cc(Cl)c(N)cc1OC [M10]
[1]; [6]
  % of Total Metabolism, Rat Hep 4 hr: trace

## CCN(CCNC(=O)c1cc(Cl)c(N)cc1OC)CCOCCO [M11]
[1]; [6]
  % of Total Metabolism, Rat Hep 1 hr: Trace
  % of Total Metabolism, Rat Hep 4 hr: 3.5%

## CCN(CCNC(=O)c1cc(Cl)c(N)cc1OC)CCOCCOCCO [M12]
Human hepatocytes; [6]
  % of Total Metabolism, Human Hep 4 hr: trace
[1]; [6]
  % of Total Metabolism, Rat Hep 1 hr: Trace
  % of Total Metabolism, Rat Hep 4 hr: 0.7%

## CCN(CCNC(=O)c1cc(Cl)c(N)cc1OC)CCOCCOCCOCCO [M13]
Human hepatocytes; [6]
  % of Total Metabolism, Human Hep 4 hr: 2.7%
[1]; [6]
  % of Total Metabolism, Rat Hep 1 hr: 3.0%
  % of Total Metabolism, Rat Hep 4 hr: 12.6%

## CCN(CCNC(=O)c1cc(Cl)c(N)cc1OC)CCOCCOCCOCCOCCO [M14]
Human hepatocytes; [6]
  % of Total Metabolism, Human Hep 1 hr: trace
  % of Total Metabolism, Human Hep 4 hr: trace
[1]; [6]
  % of Total Metabolism, Rat Hep 1 hr: Trace
  % of Total Metabolism, Rat Hep 4 hr: 2%

## CCN(CCNC(=O)c1cc(Cl)c(N)cc1OC)CCOCCOCCOCCOCCOCCO [M15]
Human hepatocytes; [6]
  % of Total Metabolism, Human Hep 1 hr: trace
  % of Total Metabolism, Human Hep 4 hr: trace
[1]; [6]
  % of Total Metabolism, Rat Hep 1 hr: Trace
  % of Total Metabolism, Rat Hep 4 hr: 1%

## CCN(CCNC(=O)c1cc(Cl)c(N)cc1OC)CCOCCOCCOCCOCCOCCOCCO [M16]
Human hepatocytes; [6]
  % of Total Metabolism, Human Hep 1 hr: trace
  % of Total Metabolism, Human Hep 4 hr: trace
[1]; [6]
  % of Total Metabolism, Rat Hep 1 hr: trace
  % of Total Metabolism, Rat Hep 4 hr: trace

## CCN(CCNC(=O)c1cc(Cl)c(N)cc1OC)CCOCCOCCOCCOCCOCCOCCOCCO [M17]
Human hepatocytes; [6]
  % of Total Metabolism, Human Hep 1 hr: trace
  % of Total Metabolism, Human Hep 4 hr: trace
[1]; [6]
  % of Total Metabolism, Rat Hep 1 hr: trace
  % of Total Metabolism, Rat Hep 4 hr: trace

## CCN(CCNC(=O)c1cc(Cl)c(N)cc1OC)CCOC [mPEG1-N-Metoclopramide]
Dopamine 2L receptors
  Fold-change Relative to Parent: 2.8
  IC50: 0.233 µM
Dopamine 2S receptor
  Fold-change Relative to Parent: 4.19
  IC50: 0.345 µM
Human hepatocytes
  extent of metabolism in human hepatocytes: low metabolism
Human hepatocytes; [7]
  % of Total Metabolism, Human Hep 1 hr: 86.5%
  % of Total Metabolism, Human Hep 4 hr: 90.2%
[2]
  CLRen: 4.4 mL/min/kg
[2]; oral gavage, 2.5 mg/Kg
  Clast: 4.39 ng/mL
  Tlast: 2.5 h
[3]
  Fold-change Relative to Parent: 1.3
  IC50: 19.7 µM
[4]; IC50 relative to metoclopramide, 5HT4 cAMP
  Fold-change Relative to Parent: 1.5
[4]; cAMP accumulation, CHO-K1 cells stably expressing 5HT4
  IC50: 1.59 µM
In vivo
  AUC(0-inf): 88.3 ng·h/mL
  MRT inf: 27.6 min
  Vd: 2.84 L/kg
  clearance: 101 mL/min/kg
  half-life: 39 min
In vivo; po, 2.5 mg/kg
  AUC: 24.2 ng·h/mL
  CL/F: 1550 mL/min/kg
  Cmax: 33.2 ng/mL
  Tmax: 4.8 min
  bioavailability: 6.25%
[1]; [7]
  % of Total Metabolism, Rat Hep 1 hr: 32.7%
  % of Total Metabolism, Rat Hep 4 hr: <1.0%
[1]
  major metabolic pathway: N-dealkylation

## CCN(CCNC(=O)c1cc(Cl)c(N)cc1OC)CCOCCOC [mPEG2-N-Metoclopramide]
Dopamine 2L receptors
  Fold-change Relative to Parent: 16.1
  IC50: 1.36 µM
Dopamine 2S receptor
  Fold-change Relative to Parent: 9.57
  IC50: 0.786 µM
[3]
  Fold-change Relative to Parent: 2.0
  IC50: 29.7 µM

## CCN(CCNC(=O)c1cc(Cl)c(N)cc1OC)CCOCCOCCOCCOCCOCCOCCOC [mPEG7-N-Metoclopramide]
Dopamine 2L receptors
  Fold-change Relative to Parent: 137.3
  IC50: 11.6 µM
Dopamine 2S receptor
  Fold-change Relative to Parent: 99.57
  IC50: 8.18 µM
[3]
  Fold-change Relative to Parent: 8.8
  IC50: 133 µM

## CCN(CCNC(=O)c1cc(Cl)c(N)cc1OC)CCOCCOCCOCCOCCOCCOCCOCCOC [mPEG8-N-Metoclopramide]
Dopamine 2L receptors
  Fold-change Relative to Parent: 80.7
  IC50: 6.79 µM
Dopamine 2S receptor
  Fold-change Relative to Parent: 67.4
  IC50: 5.53 µM and 5.54 µM
Human hepatocytes
  extent of metabolism in human hepatocytes: only minor metabolism
Human hepatocytes; [6]
  % of Total Metabolism, Human Hep 1 hr: 100%
  % of Total Metabolism, Human Hep 4 hr: 94.8%
[2]
  CLRen: 0.54 mL/min/kg
[3]
  Fold-change Relative to Parent: 11.9
  IC50: 181 µM
In vivo
  AUC(0-inf): 98.3 ng·h/mL
  MRT inf: 146 min
  Vd: 17.8 L/kg
  clearance: 84.4 mL/min/kg
  half-life: 145 min
[1]; hepatocytes
  N-dealkylation compared with metoclopramide: less compared with metoclopromide
[1]; [6]
  % of Total Metabolism, Rat Hep 1 hr: 83%
  % of Total Metabolism, Rat Hep 4 hr: 43.5%
[1]
  major metabolic pathway: PEG chain modification

## CCN(CCNC(=O)c1cc(Cl)c(N)cc1OC)CCOCCOCCOCCOCCOCCOCCOCCOCCOC [mPEG9-N-Metoclopramide]
Dopamine 2L receptors
  Fold-change Relative to Parent: 131.9
  IC50: 11.1 µM
Dopamine 2S receptor
  Fold-change Relative to Parent: 87.86
  IC50: 7.22 µM
Dopamine 2S receptor; listed as mPEG9-N-metoclopramide
  Fold-change Relative to Parent: 87.6
[3]
  Fold-change Relative to Parent: 13.3
  IC50: 202 µM
